The values below come from article PMC8550792, “Evolution of kinase polypharmacology across HSP90 drug discovery” (Cell Chemical Biology, 2021).

As a reminder, the EC50 is the concentration at which the effect is half-maximal. A higher EC50 goes with a need for much substance.

The target of data set [1] is T1, 382 unique human kinases (Homo sapiens, UniProt O43293).
T1 construct: purchased Reaction Biology (HotSpot contract assay)
Briefly: biochemical. It is filed as biochemical. To be noted: kinase ZIPK/DAPK3, compound 10 uM; for remaining activity at 10 µM: read-out: % Enzyme Activity (relative to DMSO controls).

Data set [2] concerns the target T2, 382 unique human kinases (Homo sapiens, UniProt O75460).
T2 construct: purchased Reaction Biology (HotSpot contract assay)
Briefly: biochemical. The class given is biochemical. To be noted: kinase ERN1/IRE1, compound 10 uM; for remaining activity at 10 µM: read-out: % Enzyme Activity (relative to DMSO controls).

Data set [3] addresses T3, 382 unique human kinases (Homo sapiens, UniProt P51957).
T3 construct: purchased Reaction Biology (HotSpot contract assay)
The experiment in a line: biochemical. To be noted: NEK4, 10 uM; for remaining activity at 10 µM: read-out: % Enzyme Activity (relative to DMSO controls). The class given is biochemical.

The target in data set [4] is T4, 382 unique human kinases (Homo sapiens, UniProt Q96SB4).
T4 construct: purchased Reaction Biology (HotSpot contract assay)
T4 sequence (Q96SB4 whole entry): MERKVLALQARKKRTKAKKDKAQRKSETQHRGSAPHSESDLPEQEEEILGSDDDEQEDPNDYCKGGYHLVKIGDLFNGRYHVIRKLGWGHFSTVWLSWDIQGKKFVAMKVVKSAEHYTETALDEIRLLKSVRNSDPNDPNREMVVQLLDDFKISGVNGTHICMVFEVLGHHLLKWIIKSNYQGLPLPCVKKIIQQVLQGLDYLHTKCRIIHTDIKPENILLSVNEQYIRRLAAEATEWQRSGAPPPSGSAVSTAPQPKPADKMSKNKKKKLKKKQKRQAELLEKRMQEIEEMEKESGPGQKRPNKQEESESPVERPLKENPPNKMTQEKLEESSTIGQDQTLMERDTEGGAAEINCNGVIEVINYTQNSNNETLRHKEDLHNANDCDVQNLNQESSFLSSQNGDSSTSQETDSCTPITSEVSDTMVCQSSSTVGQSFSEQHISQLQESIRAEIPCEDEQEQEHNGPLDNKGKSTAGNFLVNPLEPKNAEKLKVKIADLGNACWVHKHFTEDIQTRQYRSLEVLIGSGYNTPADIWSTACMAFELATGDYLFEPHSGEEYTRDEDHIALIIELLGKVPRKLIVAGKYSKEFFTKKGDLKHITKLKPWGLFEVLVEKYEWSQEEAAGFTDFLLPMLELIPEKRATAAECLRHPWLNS
The experiment in a line: biochemical. The conditions noted are these: SRPK1, 10 uM; for remaining activity at 10 µM: read-out: % Enzyme Activity (relative to DMSO controls). It is filed as biochemical.

Data set [5] has as its target T5, 382 unique human kinases (Homo sapiens, UniProt P07949, S891A).
T5 construct: purchased Reaction Biology (HotSpot contract assay)
The experiment in a line: biochemical. The class given is biochemical. To be noted: RET (S891A), [ATP] 5 µM, compound 10 uM; for remaining activity at 10 µM: read-out: % Enzyme Activity (relative to DMSO controls).

For data set [6], the target named is T6, 382 unique human kinases (Homo sapiens, UniProt Q32MK0).
T6 construct: purchased Reaction Biology (HotSpot contract assay)
T6 sequence (Q32MK0 1-819): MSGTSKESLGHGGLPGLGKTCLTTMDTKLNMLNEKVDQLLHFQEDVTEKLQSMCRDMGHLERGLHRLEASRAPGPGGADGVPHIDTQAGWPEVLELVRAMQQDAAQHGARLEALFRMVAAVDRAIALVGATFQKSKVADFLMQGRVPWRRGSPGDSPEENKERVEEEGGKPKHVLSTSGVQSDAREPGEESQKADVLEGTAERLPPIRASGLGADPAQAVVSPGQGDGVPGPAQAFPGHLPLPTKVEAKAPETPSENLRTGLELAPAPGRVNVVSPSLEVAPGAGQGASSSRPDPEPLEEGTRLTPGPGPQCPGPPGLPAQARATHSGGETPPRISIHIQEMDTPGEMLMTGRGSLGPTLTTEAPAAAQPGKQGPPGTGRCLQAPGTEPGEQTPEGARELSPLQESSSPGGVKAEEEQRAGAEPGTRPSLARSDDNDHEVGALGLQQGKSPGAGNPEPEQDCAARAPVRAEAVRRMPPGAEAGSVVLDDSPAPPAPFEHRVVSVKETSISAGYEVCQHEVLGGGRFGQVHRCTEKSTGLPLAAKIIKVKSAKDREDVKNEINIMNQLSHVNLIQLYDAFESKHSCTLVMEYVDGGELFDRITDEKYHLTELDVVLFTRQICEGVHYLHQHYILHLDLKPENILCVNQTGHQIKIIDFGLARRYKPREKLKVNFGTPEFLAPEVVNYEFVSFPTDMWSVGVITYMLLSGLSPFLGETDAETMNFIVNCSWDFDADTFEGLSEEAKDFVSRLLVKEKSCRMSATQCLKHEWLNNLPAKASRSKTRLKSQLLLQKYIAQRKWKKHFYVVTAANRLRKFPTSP
The experiment in a line: biochemical. The conditions noted are these: MYLK3, 10 uM; for remaining activity at 10 µM: read-out: % Enzyme Activity (relative to DMSO controls). The class given is biochemical.

The target of data set [7] is T7, 382 unique human kinases (Homo sapiens, UniProt P53350).
T7 construct: purchased Reaction Biology (HotSpot contract assay)
T7 sequence (P53350 whole entry): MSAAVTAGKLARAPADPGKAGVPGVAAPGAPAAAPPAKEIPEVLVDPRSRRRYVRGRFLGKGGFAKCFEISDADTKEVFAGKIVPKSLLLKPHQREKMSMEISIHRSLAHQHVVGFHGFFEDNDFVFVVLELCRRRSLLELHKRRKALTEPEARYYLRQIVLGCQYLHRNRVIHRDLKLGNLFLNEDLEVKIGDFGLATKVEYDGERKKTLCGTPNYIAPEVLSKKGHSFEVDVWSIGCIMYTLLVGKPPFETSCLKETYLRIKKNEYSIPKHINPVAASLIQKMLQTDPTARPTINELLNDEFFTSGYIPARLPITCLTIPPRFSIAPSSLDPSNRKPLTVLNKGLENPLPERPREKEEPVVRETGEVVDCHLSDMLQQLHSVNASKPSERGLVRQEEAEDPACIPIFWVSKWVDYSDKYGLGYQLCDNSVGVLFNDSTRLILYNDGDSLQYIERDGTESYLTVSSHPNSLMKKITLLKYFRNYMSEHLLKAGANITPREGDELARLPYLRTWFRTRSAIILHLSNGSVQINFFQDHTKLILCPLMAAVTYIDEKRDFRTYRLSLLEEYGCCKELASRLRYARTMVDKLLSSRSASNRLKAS
The experiment in a line: biochemical. It is filed as biochemical. The conditions noted are these: PLK1, [ATP] 30 µM.

Data set [8] addresses T8, 382 unique human kinases (Homo sapiens, UniProt P42684).
T8 construct: purchased Reaction Biology (HotSpot contract assay)
The experiment in a line: biochemical. The class given is biochemical. The conditions noted are these: ABL2/ARG, [ATP] 30 µM.

In data set [9] the target is T9, 382 unique human kinases (Homo sapiens, UniProt Q86YV6).
T9 construct: purchased Reaction Biology (HotSpot contract assay)
T9 sequence (Q86YV6 1-388): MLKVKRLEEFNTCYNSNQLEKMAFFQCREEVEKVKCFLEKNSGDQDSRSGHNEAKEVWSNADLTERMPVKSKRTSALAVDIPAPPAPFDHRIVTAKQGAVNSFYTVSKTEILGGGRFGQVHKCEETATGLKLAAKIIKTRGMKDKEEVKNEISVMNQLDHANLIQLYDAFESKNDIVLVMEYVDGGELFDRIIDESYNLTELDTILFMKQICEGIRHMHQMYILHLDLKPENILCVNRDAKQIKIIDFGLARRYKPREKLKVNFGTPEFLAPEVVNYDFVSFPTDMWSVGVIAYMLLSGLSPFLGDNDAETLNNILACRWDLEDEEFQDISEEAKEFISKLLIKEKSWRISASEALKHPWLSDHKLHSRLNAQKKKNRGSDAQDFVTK
The experiment in a line: biochemical. It is filed as biochemical. The conditions noted are these: MYLK4, [ATP] 50 µM, compound 10 uM; for remaining activity at 10 µM: read-out: % Enzyme Activity (relative to DMSO controls).

Another data set has as its system HSP90B1. The arrangement: method as in ChEMBL23 (accessed: 23/08/2018). To be noted: average of reported values; ref ChEMBL23 (accessed: 23/08/2018); cited from earlier work.
The target in a further data set is ABL2 (Homo sapiens, UniProt P42684). The experiment in a line: NanoBRET intracellular target engagement. For orientation: BRET reads energy transfer from a luciferase to a nearby fluorophore.
ABL2, sequence (P42684 whole entry): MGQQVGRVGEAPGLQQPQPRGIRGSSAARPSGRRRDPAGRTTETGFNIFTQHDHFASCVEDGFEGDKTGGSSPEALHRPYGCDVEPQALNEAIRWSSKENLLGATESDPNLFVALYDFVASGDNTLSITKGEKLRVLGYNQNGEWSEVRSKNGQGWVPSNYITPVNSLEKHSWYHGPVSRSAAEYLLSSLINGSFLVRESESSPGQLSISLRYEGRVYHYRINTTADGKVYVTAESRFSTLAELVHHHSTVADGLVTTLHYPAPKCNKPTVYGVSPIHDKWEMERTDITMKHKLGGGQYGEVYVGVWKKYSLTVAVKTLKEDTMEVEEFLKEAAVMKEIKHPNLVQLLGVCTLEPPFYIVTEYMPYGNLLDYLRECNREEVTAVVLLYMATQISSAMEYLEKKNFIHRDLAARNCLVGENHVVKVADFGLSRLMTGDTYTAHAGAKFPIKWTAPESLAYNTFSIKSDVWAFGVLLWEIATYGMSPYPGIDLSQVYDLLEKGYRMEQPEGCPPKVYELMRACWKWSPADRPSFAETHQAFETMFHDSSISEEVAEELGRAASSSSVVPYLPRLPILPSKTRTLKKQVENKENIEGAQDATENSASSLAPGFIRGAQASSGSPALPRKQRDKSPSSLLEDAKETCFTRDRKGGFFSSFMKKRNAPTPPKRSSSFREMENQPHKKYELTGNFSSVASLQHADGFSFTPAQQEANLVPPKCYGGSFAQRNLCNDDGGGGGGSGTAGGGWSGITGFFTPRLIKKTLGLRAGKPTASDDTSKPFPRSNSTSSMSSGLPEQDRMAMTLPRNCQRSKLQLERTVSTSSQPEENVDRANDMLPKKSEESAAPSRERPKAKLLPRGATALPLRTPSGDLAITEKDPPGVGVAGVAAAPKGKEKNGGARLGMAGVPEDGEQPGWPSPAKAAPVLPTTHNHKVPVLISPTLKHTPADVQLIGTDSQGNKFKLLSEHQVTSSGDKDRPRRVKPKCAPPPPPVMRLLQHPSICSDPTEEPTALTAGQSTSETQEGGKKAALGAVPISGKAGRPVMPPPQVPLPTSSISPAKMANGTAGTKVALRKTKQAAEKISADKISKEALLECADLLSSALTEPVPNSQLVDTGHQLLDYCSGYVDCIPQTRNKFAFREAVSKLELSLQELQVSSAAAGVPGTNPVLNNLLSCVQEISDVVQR
For data set [10] the following is noted: human, in vivo; cited from earlier work.
For a further data set, the target named is ABL1 (Homo sapiens, UniProt P00519). The experiment in a line: NanoBRET intracellular target engagement.
Data set [11] deals with T10, 382 unique human kinases (Homo sapiens, UniProt P15056, L597V).
T10 construct: purchased Reaction Biology (HotSpot contract assay)
The experiment in a line: biochemical. It is filed as biochemical. The conditions noted are these: BRAF (L597V), compound at 10 uM, duplicate values.

The target of data set [12] is T11, 382 unique human kinases (Homo sapiens, UniProt P57078).
T11 construct: purchased Reaction Biology (HotSpot contract assay)
Briefly: biochemical. It is filed as biochemical. The conditions noted are these: kinase RIPK4, compound 10 uM.

For data set [13], the target named is T12, 382 unique human kinases (Homo sapiens, UniProt P04626, V777L).
T12 construct: purchased Reaction Biology (HotSpot contract assay)
Briefly: biochemical. The class given is biochemical. To be noted: ERBB2 (V777L), compound at 10 uM, duplicate values.

In data set [14] the target is T13, 382 unique human kinases (Homo sapiens, UniProt P08069).
T13 construct: purchased Reaction Biology (HotSpot contract assay)
Briefly: biochemical. The class given is biochemical. To be noted: IGF1R, compound at 10 uM, duplicate values.

The target of data set [15] is T14, 382 unique human kinases (Homo sapiens, UniProt P04626).
T14 construct: purchased Reaction Biology (HotSpot contract assay)
Briefly: biochemical. The class given is biochemical. To be noted: ERBB2/HER2, 10 uM.

Data set [16] concerns the target T15, 382 unique human kinases (Homo sapiens, UniProt P15056, V600K).
T15 construct: purchased Reaction Biology (HotSpot contract assay)
Briefly: biochemical. It is filed as biochemical. To be noted: BRAF (V600K), 10 uM.

Setting [17] is: compound 1 uM, read-out: % Enzyme Activity (relative to DMSO controls).
Where [18] appears, read: compound 10 uM, read-out: % Enzyme Activity (relative to DMSO controls).
Setting [19] is: read-out: % Enzyme Activity (relative to DMSO controls).

T8 sequence (P42684 whole entry): as above
T1 sequence (O43293 whole entry): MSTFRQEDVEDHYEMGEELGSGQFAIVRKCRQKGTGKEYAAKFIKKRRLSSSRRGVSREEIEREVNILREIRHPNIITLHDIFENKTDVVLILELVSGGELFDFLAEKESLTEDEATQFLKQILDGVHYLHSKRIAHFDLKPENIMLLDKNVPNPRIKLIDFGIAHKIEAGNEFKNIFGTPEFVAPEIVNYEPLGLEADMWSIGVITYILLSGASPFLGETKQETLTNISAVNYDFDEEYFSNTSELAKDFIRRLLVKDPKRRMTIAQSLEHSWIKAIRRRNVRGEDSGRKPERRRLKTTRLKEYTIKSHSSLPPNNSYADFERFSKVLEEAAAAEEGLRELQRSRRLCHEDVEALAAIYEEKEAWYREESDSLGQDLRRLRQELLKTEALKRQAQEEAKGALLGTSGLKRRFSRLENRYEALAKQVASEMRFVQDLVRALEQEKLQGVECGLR
T3 sequence (P51957 whole entry): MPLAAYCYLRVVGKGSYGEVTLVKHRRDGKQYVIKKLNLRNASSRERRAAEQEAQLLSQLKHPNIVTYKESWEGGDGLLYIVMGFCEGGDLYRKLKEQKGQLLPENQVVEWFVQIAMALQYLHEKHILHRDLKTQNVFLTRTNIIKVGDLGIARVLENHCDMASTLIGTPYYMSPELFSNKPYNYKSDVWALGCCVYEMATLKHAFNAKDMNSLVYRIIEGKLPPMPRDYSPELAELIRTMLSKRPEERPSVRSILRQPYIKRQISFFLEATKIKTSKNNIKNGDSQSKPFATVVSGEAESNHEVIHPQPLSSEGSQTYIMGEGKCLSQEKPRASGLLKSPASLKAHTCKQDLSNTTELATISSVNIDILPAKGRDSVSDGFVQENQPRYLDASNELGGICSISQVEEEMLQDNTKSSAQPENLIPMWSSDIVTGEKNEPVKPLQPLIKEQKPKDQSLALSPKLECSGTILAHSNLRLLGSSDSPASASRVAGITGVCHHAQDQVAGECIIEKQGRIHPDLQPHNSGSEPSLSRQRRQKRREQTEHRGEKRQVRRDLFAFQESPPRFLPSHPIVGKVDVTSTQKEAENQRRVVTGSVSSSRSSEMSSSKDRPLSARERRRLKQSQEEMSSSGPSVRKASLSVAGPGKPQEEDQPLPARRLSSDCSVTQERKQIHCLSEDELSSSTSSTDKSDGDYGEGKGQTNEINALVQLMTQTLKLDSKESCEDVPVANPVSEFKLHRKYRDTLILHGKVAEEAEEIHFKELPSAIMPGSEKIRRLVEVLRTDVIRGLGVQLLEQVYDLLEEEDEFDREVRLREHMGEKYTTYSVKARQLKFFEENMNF
T5 sequence (P07949 29-1114 S891A): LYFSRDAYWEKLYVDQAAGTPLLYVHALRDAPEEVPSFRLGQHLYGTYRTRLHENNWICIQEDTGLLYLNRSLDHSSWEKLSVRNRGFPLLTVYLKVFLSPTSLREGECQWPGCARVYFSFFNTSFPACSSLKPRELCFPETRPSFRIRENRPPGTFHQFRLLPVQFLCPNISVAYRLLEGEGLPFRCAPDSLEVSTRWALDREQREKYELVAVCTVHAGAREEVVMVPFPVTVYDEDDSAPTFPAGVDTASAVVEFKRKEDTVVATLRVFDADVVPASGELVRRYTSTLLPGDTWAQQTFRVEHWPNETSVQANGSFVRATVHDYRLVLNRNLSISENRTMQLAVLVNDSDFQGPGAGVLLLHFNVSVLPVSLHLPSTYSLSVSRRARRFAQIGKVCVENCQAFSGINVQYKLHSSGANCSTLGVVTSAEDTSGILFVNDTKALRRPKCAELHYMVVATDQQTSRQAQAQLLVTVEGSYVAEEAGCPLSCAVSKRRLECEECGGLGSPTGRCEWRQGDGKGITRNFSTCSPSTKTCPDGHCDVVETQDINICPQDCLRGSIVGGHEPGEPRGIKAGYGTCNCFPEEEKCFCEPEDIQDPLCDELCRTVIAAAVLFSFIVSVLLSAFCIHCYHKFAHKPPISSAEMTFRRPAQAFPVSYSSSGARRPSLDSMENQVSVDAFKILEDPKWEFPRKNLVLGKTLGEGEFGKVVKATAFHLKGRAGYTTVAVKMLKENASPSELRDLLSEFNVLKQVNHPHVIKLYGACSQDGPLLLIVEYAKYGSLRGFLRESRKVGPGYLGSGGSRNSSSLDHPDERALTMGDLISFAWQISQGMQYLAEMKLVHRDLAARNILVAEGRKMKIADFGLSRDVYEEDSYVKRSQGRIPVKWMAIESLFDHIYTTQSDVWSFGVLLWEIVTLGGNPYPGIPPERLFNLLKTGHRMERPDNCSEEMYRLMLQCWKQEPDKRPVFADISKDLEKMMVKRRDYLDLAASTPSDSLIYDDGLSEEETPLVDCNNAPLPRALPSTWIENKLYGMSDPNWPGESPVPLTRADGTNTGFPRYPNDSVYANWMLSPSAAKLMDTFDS

On to `CC(C)c1cc(-c2n[nH]c(=O)n2-c2ccc3c(ccn3C)c2)c(O)cc1O` [Ganetespib (STA9090)], for which the remaining activity at 10 µM came out at 89.8% at 382 unique human kinases [1] and 103% on 382 unique human kinases [2].
As for `CC(C)c1cc(-c2n[nH]c(=O)n2-c2ccc3c(ccn3C)c2)c(O)cc1O` [Ganetespib], the remaining activity at 10 µM on 382 unique human kinases [3] turned out to be 95.1%; on 382 unique human kinases [4], 90.7%; on 382 unique human kinases [5] it was 20.2%; on 382 unique human kinases [6], 100%; on 382 unique human kinases [7] (setting [18]), 11.5%; on 382 unique human kinases [8] (setting [18]), 1.12%. Also, at 382 unique human kinases [9], the remaining activity at 10 µM is 60.1%. For the same molecule, the remaining activity at 1 µM is 88.2% at 382 unique human kinases [7] (setting [17]) and 12.9% at 382 unique human kinases [8] (setting [17]). Moreover, the “pActivity, HSP90B1” value with HSP90B1 is on record as 8. The concentration giving a half-maximal response (EC50) turned out to be 21.1 µM on ABL2 and 82.9 µM at ABL1. The remaining activity at 100 µM stood at 22.6% at ABL2 (HEK293, read-out: %Normalized Bret Response, ABL2 NanoBRET, HEK293, Drug Conc. 0.0001 M) and 41.3% on ABL1 (HEK293, read-out: %Normalized Bret Response, ABL1 NanoBRET, HEK293, Drug Conc. 0.0001 M). Moreover, in data set [10], the “Cmax,total” value is 6 to 12 µM.
With `CCNC(=O)c1noc(-c2cc(C(C)C)c(O)cc2O)c1-c1ccc(CN2CCOCC2)cc1` [Luminespib (AUY-922)], the “% Enzyme Activity (relative to DMSO controls)” value turned out to be 104.65% at 382 unique human kinases [11]; 97.96% on 382 unique human kinases [1]; 85.29% on 382 unique human kinases [12]; 104.18% on 382 unique human kinases [13]; 82.42% on 382 unique human kinases [2]; 104.49% at 382 unique human kinases [14]. In addition, the remaining activity at 10 µM stood at 107% at 382 unique human kinases [11] (setting [19]); 98.6% at 382 unique human kinases [1]; 87.2% at 382 unique human kinases [12] (setting [19]); 105% at 382 unique human kinases [13] (setting [19]); 82.5% on 382 unique human kinases [2]; 106% on 382 unique human kinases [14] (setting [19]).
Regarding `CCNC(=O)c1noc(-c2cc(C(C)C)c(O)cc2O)c1-c1ccc(CN2CCOCC2)cc1` [Luminespib], the “% Enzyme Activity (relative to DMSO controls)” value stood at 95.18% on 382 unique human kinases [3]; 97.41% on 382 unique human kinases [15]; 101.35% on 382 unique human kinases [4]; 88.26% at 382 unique human kinases [5]; 99.89% on 382 unique human kinases [6]; 100.90% at 382 unique human kinases [7] (compound 10 uM). Also, the entries for the “% Enzyme Activity (relative to DMSO controls)” value on 382 unique human kinases [16], on 382 unique human kinases [8] (compound 10 uM) and on 382 unique human kinases [9] were 98.47%, 7.82% and 95.56%, respectively. Moreover, the remaining activity at 10 µM on 382 unique human kinases [3] turned out to be 95.4%; at 382 unique human kinases [15] (setting [19]), 98.2%; on 382 unique human kinases [4], 101%; on 382 unique human kinases [5] it was 89.3%; on 382 unique human kinases [6], 100%; on 382 unique human kinases [7] (setting [18]), 103%. The remaining activity at 10 µM at 382 unique human kinases [16] (setting [19]) is 99.2%; at 382 unique human kinases [8] (setting [18]), 8.16%; on 382 unique human kinases [9] it was 96.7%.
